Results on 1 compound are retold here after US20060276416A1, “Methods and compositions for treating flushing and drug induced weight gain” (Sirtris Pharmaceuticals, Inc., priority 2005, published 2006).

The subject of one assay is S. cerevisiae. As to the kind of experiment: Yeast replicative lifespan by micro-manipulation. It is filed as cell-based. The method, then: (§1) Average lifespan for wild type, 22.9 generations, quercetin, 23.4; piceatannol.
Lifespan measurements were performed using PSY316AT MATα as previously described^35. All compounds for lifespan analyses were dissolved in 95% ethanol and plates were dried and used within 24 hours. Prior to lifespan analysis, cells were pre-incubated on their respective media for at least 15 hours. Following transfer to a new plate, cells were equilibrated on the medium for a minimum of 4 hours prior to micro-manipulating them. At least 30 cells were examined per experiment and each experiment was performed at least twice. Statistical significance of lifespan differences was determined using the Wilcoxon rank sum test. Differences are stated to be significant when the confidence is higher than 95%.

Another assay relates to C. elegans. As to the kind of experiment: C. elegans fat accumulation, Nile Red staining. It counts as in vivo. The method, then: Fat accumulation was visualized with Nile Red staining, as described further below and in Ashrafi K, et al. Nature 421:268-27 (2003).
Synchronized starved L1 worms were grown in the presence of Nile Red. Strains were grown on NGM plates at 25° C. for approximately 48 hours until the young adult stage was reached. 20-30 young adult worms were then washed 2× with M9 buffer and transferred to new NGM/Nile red experimental plates that contained either OP50 or HTT5 E. coli carrying the L4440 RNAi control vector.
Young adults were transferred to plates containing the appropriate vector, Nile Red stain and drug then maintained at 25° C.
Nile Red: Nile Red Powder (Sigma #N-3013) was dissolved in acetone at 500 μg/ml, diluted in 1× Phosphate Buffered Saline (PBS) including appropriate drug and applied to surface of Nematode Growth Media (NGM) plates previously seeded with OP50 or RNAi bacteria, at a final concentration of 0.05 μg/ml. Fat content was monitored and recorded by fluorescence microscopy.

For another assay, the target named is recombinant GST-Sir2 (Saccharomyces cerevisiae, UniProt P06700). The experiment in a line: Sir2 deacetylation assay. It counts as biochemical, S. cerevisiae. The method, then:
as §1
His6-tagged recombinant SIRT1 and GST-tagged recombinant Sir2 were prepared as previously described^26. From 0.1 to 1 μg of SIRT1 and 1.5 μg of Sir2 were used per deacetylation assay (in 50 μl total reaction) as previously described^26. SIRT1 assays and certain of those for Sir2 employed the p53-382 acetylated substrate (‘Fluor de Lys-SIRT1’, BIOMOL) rather than FdL.
Themed compound libraries (BIOMOL) were used for primary and secondary screening. Most polyphenol compounds were dissolved at 10 mM in dimethylsulfoxide (DMSO) on the day of the assay. For water soluble compounds and negative controls, 1% v/v DMSO was added to the assay. In vitro fluorescence assay results were read in white ½-volume 96-well microplates (Corning Costar 3693) with a CytoFluor™ II fluorescence plate reader (PerSeptive Biosystems, Ex. 360 nm, Em. 460 nm, gain=85). HeLa cells were grown and the cellular deacetylation assays were performed and read, as above, but in full-volume 96-well microplates (Corning Costar 3595). […] Calculation of net fluorescence increases included subtraction of a blank value, which in the case of Sir2 was obtained by omitting the enzyme from the reaction and in the case of SIRT1 by adding an inhibitor (200 μM suramin or 1 mM nicotinamide) to the reaction prior to the acetylated substrate. […]

In assay [1] the test system is AMPK at Thr172 and ACC at serine 79. The experiment in a line: AMPK and ACC phosphorylation Western in CHO-HIR cells. It counts as cell-based.
Experimental: Cells were harvested after 30 minutes and lysates were immediately boiled in SDS and subjected to Western analysis with site-specific antibodies. Phosphorylation of AMPK at Thr172 indicates activation of the kinase. Active AMPK phosphorylates and inactivates ACC at serine 79.
The target in the next assay is recombinant SIR-2.1 (Caenorhabditis elegans, UniProt Q21921). The experiment in a line: SIR-2.1 deacetylation assay (Fluor de Lys). It counts as biochemical, C. elegans.
The test system of a further assay is NIH3T3 cells. As to the kind of experiment: Adipocyte differentiation and fat content, Oil Red O. It is filed as cell-based. As to conditions: 10 days of differentiation. The procedure: (§2) After 10 days of differentiation, cells were fixed and stained with Oil red O. Oil red 0 was extracted from stained cells and quantified by measuring absorbance at 520 nm. B. Oil red 0 quantitation is shown as fold change relative to the 3T3-L1 sample treated with 0 μM resvratrol.
(§3) After 10 days of differentiation, fat content was assessed by Oil Red O staining, as described below. […] The results in NIH3T3 cells confirm the results obtained in C. elegans.
(§4) 3T3-L1 and NIH3T3 cells were maintained in DMEM plus 10% calf serum. Adipocyte differentiation of 3T3-L1 cells was performed as described previously (MacDougald, O. A. and Lane, M. D. (1995). Transcriptional regulation of gene expression during adipocyte differentiation. Annu. Rev. Biochem. 64, 345-373). NIH3T3 cells were induced to form adipocytes under the same conditions as 3T3-L1 cells, but with 6 days of treatment with insulin, dexamethasone, and isobutylmethylxanthine in 10% fetal calf serum after cells reach confluence. The staining of adipocytes with Oil Red-O and quantitation was performed as described previously (Ramirez-Zacarias J L, Castro-Munozledo F, Kuri-Harcuch W. Histochemistry. 1992 97(6): 493-7).

The subject of a further assay is 3T3-L1 cells. The description is as above. It counts as cell-based. The procedure: as §2, §3, §4

“Also recorded” adds a separate entry of the source.

Chain of recombinant GST-Sir2 (P06700 whole entry): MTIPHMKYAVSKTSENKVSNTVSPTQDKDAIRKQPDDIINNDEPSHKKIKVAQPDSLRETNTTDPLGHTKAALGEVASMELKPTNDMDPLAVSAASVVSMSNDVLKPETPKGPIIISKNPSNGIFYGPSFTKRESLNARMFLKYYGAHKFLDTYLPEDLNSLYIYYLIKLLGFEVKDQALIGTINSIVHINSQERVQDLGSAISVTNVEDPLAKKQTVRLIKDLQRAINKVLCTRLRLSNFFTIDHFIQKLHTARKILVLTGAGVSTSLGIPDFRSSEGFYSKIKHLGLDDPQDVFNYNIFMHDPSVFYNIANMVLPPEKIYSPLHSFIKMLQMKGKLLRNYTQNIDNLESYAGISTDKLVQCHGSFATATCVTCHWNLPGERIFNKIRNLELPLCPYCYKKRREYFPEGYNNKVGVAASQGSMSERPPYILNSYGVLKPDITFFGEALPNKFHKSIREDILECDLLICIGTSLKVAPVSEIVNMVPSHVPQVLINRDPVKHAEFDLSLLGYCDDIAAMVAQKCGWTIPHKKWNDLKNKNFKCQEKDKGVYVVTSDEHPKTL
Chain of recombinant SIR-2.1 (Q21921 whole entry): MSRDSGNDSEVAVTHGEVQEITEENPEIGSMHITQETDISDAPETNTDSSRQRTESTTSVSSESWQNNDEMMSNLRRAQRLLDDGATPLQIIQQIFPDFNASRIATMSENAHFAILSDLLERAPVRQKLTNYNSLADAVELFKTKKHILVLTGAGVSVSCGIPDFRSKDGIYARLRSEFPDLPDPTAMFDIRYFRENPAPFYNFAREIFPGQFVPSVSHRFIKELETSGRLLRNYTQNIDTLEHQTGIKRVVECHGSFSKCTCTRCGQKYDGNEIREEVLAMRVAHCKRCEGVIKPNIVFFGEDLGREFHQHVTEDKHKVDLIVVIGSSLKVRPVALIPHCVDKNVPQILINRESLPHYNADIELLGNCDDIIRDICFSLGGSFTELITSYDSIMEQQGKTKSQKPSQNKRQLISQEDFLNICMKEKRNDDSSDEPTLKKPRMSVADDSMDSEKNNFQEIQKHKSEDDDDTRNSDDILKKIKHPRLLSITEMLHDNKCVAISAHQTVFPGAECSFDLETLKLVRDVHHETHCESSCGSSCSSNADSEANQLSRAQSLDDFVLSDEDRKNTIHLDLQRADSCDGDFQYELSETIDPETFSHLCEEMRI
Experimental for recombinant SIR-2.1: From 0.1 to 1 μg of SIR-2.1 and 1 μg of dSir2 were used per deacetylation assay as previously described with modifications (SIR-2.1: 200 μM NAD^+, 10 μM Fluor de Lys, FdL; dSir2: 25 μM NAD^+, 10 μM FdL)^26. STACs were dissolved at 10 mM in dimethylsulfoxide (DMSO) the day of the assay. In vitro fluorescence assay results were read in 96-well microplates (Corning Costar 3693) with a Wallac Victor Multilabel counter (Perkin Elmer, excitation at 360 nm, emission at 450 nm). Drosophila S2 cells were grown in Schneider media with fetal calf serum at 23-28° C., seeded at 9×10^4 cells/well, grown overnight and then exposed to 1 μM TSA, 500 μM polyphenols, and 200 μM FdL for 2 hr. Deacetylation of FdL with lysate from whole cells was determined as described^4. Unless otherwise indicated all initial rate measurements were means of three or more replicates obtained with single incubation times, at which point 5% or less of the substrate initially present was deacetylated.

`Oc1ccc(/C=C/c2cc(O)cc(O)c2)cc1` [Resveratrol, 3,5,4′-Trihydroxy-trans-stilbene]: the Average lifespan with S. cerevisiae (glucose-restricted+resveratrol (CR+R)) is listed as 39.9 generations; with S. cerevisiae (growth on resveratrol 10 μM, wild type untreated 21.0), 35.7 generations; with S. cerevisiae (growth on resveratrol 100 μM, wild type untreated 21.0), 29.4 generations; in the assay with S. cerevisiae (growth on resveratrol 500 μM, wild type untreated 21.0), 29.3 generations; in the assay with S. cerevisiae (pnc1Δ+resveratrol, pnc1Δ 19.2) it was 33.1 generations; in the assay on S. cerevisiae (sir2Δ+resveratrol, sir2Δ 9.9), 10.0 generations. The compound further registered an Average lifespan in the assay on S. cerevisiae (wild type+resveratrol, wild type untreated 19.0) of 37.8 generations. Also, the Fat staining entry with C. elegans (100 μM, 48 hours, control 2.5% v/v DMSO) is on record as “Significant reduction”. The Fat mobilization entry in the assay on C. elegans (DAF-16 mutant worms (mgDf47)) is “stimulates fat mobilization”; in the assay on C. elegans (RNA inactivation of TOC1.8 (AMPK) or F41E7.3 (COT)) it was “blocks resveratrol-stimulated fat mobilization”; in the assay with C. elegans (Sir2.1 RNAi) it was “did not show resveratrol induced fat mobilization”. Further, in the assay on C. elegans (normal worms, RNAi vector alone), the “Reduction of fat content” value worked out at 75%. Moreover, the “Fat accumulation (in words)” value with C. elegans (wild-type N2, 10 μM or 50 μM) was “marked decrease”. Moreover, the “Reduction of fat accumulation” value with C. elegans (wild-type N2, 100 μM, overnight) was determined as 90%. For the same compound, at recombinant GST-Sir2, the “Concentrations at which inhibition was seen” value was over 100 µM. The “Optimum concentration of activator” value at recombinant GST-Sir2 lay in the range of 2 to 5 µM. Moreover, the “Activation of AMPK” value in assay [1] (100 nM to 50 μM resveratrol, increasing concentrations) was “activation of AMPK”. Further, the “Phosphorylation of AMPK and ACC” value in assay [1] (AICAR 500 μM, resveratrol 12.5, 25 or 50 μM, 30 minutes) was “stimulates phosphorylation of AMPK and ACC”. In addition, the “Km of SIR-2.1 for the co-substrate NAD+” value on recombinant SIR-2.1 (100 μM resveratrol, 10 μM Fluor de Lys) is “lowered”. Further, the Stimulation of deacetylation result at recombinant SIR-2.1 (dose-dependent, maximum) is “up to 2.5 fold”. Further, the “Concentrations that decreased the quantity of cellular fat” value in the assay with NIH3T3 cells and with 3T3-L1 cells (10 days of differentiation) was at least 25 µM each time. For the same compound, the PPARγ expression result in the assay on 3T3-L1 cells (resveratrol-treated cells) is recorded as “did not show an increase; also recorded: marked decrease”.
